Results taken from the supplement of paper PMC13207355.
Several values for one entry are separate records, joined by “and”; a condition that tells them apart may be missing. Equal values may be shown once.

Columns and labels:
Conditions in all cases: exposure time: 72 h
E57 [1] = patient-derived glioblastoma stem cells of mesenchymal subtype; experiment: phenotypic distance (Euclidean, principal components) from DMSO controls (arbitrary units); higher = stronger morphological change
E28 [2] = patient-derived glioblastoma stem cells of classical subtype; experiment: as above
E21 [3] = patient-derived glioblastoma stem cells of mesenchymal subtype; experiment: as above
FT3469 [4] = normal neural stem cell line; experiment: as above
E31 [5] = patient-derived glioblastoma stem cells of proneural subtype; experiment: as above
E34 [6] = patient-derived glioblastoma stem cells of proneural subtype; experiment: as above
E13 [7] = patient-derived glioblastoma stem cells of classical subtype; experiment: as above
E57 [8] = experiment: surviving fraction (nuclei count normalised to DMSO); higher = more cells surviving (less toxic)
E28 [9] = experiment: as above
E21 [10] = experiment: as above
FT3469 [11] = experiment: as above
E31 [12] = experiment: as above
E34 [13] = experiment: as above
E13 [14] = experiment: as above
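Throughout, for phenotypic distance (Euclidean, principal components) from DMSO controls: cell Painting imaging in 384-well plates, CellProfiler features reduced to at least 20 principal components, Euclidean distance versus same-plate DMSO vehicle wells (0.1% v/v), median over six images per well.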
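Throughout, for surviving fraction (nuclei count normalised to DMSO): nuclei counted by high-content imaging of Hoechst-stained cells in laminin-coated 384-well plates, relative to 0.1% DMSO vehicle wells, with staurosporine as cell-death control.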

CCN(CC)Cc1ccc(C(=O)N(CCc2ccccc2OC)[C@@H]2CCNC2)cc1
Conditions | phenotypic distance | surviving fraction
E13 [7], 4.1 nM | 0.886 | –
E13 [7], 12.3 nM | 0.664 | –
E13 [7], 37 nM | 0.732 | –
E13 [7], 111.1 nM | 0.746 | –
E13 [7], 333.3 nM | 0.975 | –
E13 [7], 1000 nM | 0.586 | –
E13 [7], 3000 nM | 6.33 | –
E13 [14], 4.1 nM | – | 1.08
E13 [14], 12.3 nM | – | 0.868
E13 [14], 37 nM | – | 0.939
E13 [14], 111.1 nM | – | 0.916
E13 [14], 333.3 nM | – | 0.929
E13 [14], 1000 nM | – | 0.865
E13 [14], 3000 nM | – | 0.251
E21 [3], 4.1 nM | 0.354 | –
E21 [3], 12.3 nM | 0.793 | –
E21 [3], 37 nM | 0.496 | –
E21 [3], 111.1 nM | 0.901 | –
E21 [3], 333.3 nM | 4.65 | –
E21 [3], 1000 nM | 0.624 | –
E21 [3], 3000 nM | 4.48 | –
E21 [10], 4.1 nM | – | 0.952
E21 [10], 12.3 nM | – | 0.993
E21 [10], 37 nM | – | 1
E21 [10], 111.1 nM | – | 0.952
E21 [10], 333.3 nM | – | 0.919
E21 [10], 1000 nM | – | 0.996
E21 [10], 3000 nM | – | 0.663
E28 [2], 4.1 nM | 0.583 | –
E28 [2], 12.3 nM | 0.51 | –
E28 [2], 37 nM | 0.826 | –
E28 [2], 111.1 nM | 0.771 | –
E28 [2], 333.3 nM | 0.874 | –
E28 [2], 1000 nM | 0.721 | –
E28 [2], 3000 nM | 4.84 | –
E28 [9], 4.1 nM | – | 0.904
E28 [9], 12.3 nM | – | 1.11
E28 [9], 37 nM | – | 1.04
E28 [9], 111.1 nM | – | 1.12
E28 [9], 333.3 nM | – | 1.03
E28 [9], 1000 nM | – | 1.13
E28 [9], 3000 nM | – | 0.601
E31 [5], 4.1 nM | 0.43 | –
E31 [5], 12.3 nM | 0.532 | –
E31 [5], 37 nM | 0.762 | –
E31 [5], 111.1 nM | 0.583 | –
E31 [5], 333.3 nM | 0.607 | –
E31 [5], 1000 nM | 1.18 | –
E31 [5], 3000 nM | 5.34 | –
E31 [12], 4.1 nM | – | 1.06
E31 [12], 12.3 nM | – | 1.02
E31 [12], 37 nM | – | 1.01
E31 [12], 111.1 nM | – | 1.19
E31 [12], 333.3 nM | – | 0.914
E31 [12], 1000 nM | – | 1.11
E31 [12], 3000 nM | – | 0.62
E34 [6], 4.1 nM | 0.768 | –
E34 [6], 12.3 nM | 0.429 | –
E34 [6], 37 nM | 0.97 | –
E34 [6], 111.1 nM | 1.09 | –
E34 [6], 333.3 nM | 1.04 | –
E34 [6], 1000 nM | 0.887 | –
E34 [6], 3000 nM | 1.55 | –
E34 [13], 4.1 nM | – | 0.806
E34 [13], 12.3 nM | – | 1
E34 [13], 37 nM | – | 0.941
E34 [13], 111.1 nM | – | 1.12
E34 [13], 333.3 nM | – | 1.05
E34 [13], 1000 nM | – | 0.786
E34 [13], 3000 nM | – | 0.859
E57 [1], 4.1 nM | 0.619 | –
E57 [1], 12.3 nM | 0.993 | –
E57 [1], 37 nM | 0.517 | –
E57 [1], 111.1 nM | 0.737 | –
E57 [1], 333.3 nM | 0.532 | –
E57 [1], 1000 nM | 0.717 | –
E57 [1], 3000 nM | 7.97 | –
E57 [8], 4.1 nM | – | 1.16
E57 [8], 12.3 nM | – | 1.03
E57 [8], 37 nM | – | 1.08
E57 [8], 111.1 nM | – | 1.03
E57 [8], 333.3 nM | – | 1.06
E57 [8], 1000 nM | – | 1.05
E57 [8], 3000 nM | – | 0.433
FT3469 [4], 4.1 nM | 0.348 | –
FT3469 [4], 12.3 nM | 0.837 | –
FT3469 [4], 37 nM | 0.511 | –
FT3469 [4], 111.1 nM | 0.773 | –
FT3469 [4], 333.3 nM | 0.915 | –
FT3469 [4], 1000 nM | 1.23 | –
FT3469 [4], 3000 nM | 2.24 | –
FT3469 [11], 4.1 nM | – | 0.944
FT3469 [11], 12.3 nM | – | 1.04
FT3469 [11], 37 nM | – | 0.955
FT3469 [11], 111.1 nM | – | 1.11
FT3469 [11], 333.3 nM | – | 1.21
FT3469 [11], 1000 nM | – | 1.35
FT3469 [11], 3000 nM | – | 1.18

Cc1ccc(C(=O)N(CCCN)[C@@H](c2oc3cc(Cl)ccc3c(=O)c2Cc2ccccc2)C(C)C)cc1
Conditions | phenotypic distance | surviving fraction
E13 [7], 4.1 nM | 3.01 and 2.45 | –
E13 [7], 12.3 nM | 3.35 and 2.7 | –
E13 [7], 37 nM | 2.78 | –
E13 [7], 111.1 nM | 3.42 and 3.07 | –
E13 [7], 333.3 nM | 2.78 and 2.91 | –
E13 [7], 1000 nM | 2.81 and 3.02 | –
E13 [7], 3000 nM | 2.53 and 5.91 | –
E13 [14], 4.1 nM | – | 0.451 and 0.49
E13 [14], 12.3 nM | – | 0.443 and 0.489
E13 [14], 37 nM | – | 0.461 and 0.468
E13 [14], 111.1 nM | – | 0.399 and 0.43
E13 [14], 333.3 nM | – | 0.428 and 0.492
E13 [14], 1000 nM | – | 0.445 and 0.399
E21 [3], 4.1 nM | 6.85 and 5.14 | –
E21 [3], 12.3 nM | 6.99 and 5.4 | –
E21 [3], 37 nM | 7.53 and 5.43 | –
E21 [3], 111.1 nM | 5.98 and 4.77 | –
E21 [3], 333.3 nM | 7.67 and 4.85 | –
E21 [3], 1000 nM | 6.93 and 5.54 | –
E21 [3], 3000 nM | 10.1 and 4.79 | –
E21 [10], 4.1 nM | – | 0.198 and 0.164
E21 [10], 12.3 nM | – | 0.186 and 0.161
E21 [10], 37 nM | – | 0.159 and 0.158
E21 [10], 111.1 nM | – | 0.192 and 0.177
E21 [10], 333.3 nM | – | 0.178 and 0.162
E21 [10], 1000 nM | – | 0.21 and 0.182
E28 [2], 4.1 nM | 3.6 and 2.9 | –
E28 [2], 12.3 nM | 3.5 and 3.14 | –
E28 [2], 37 nM | 3.73 and 3.19 | –
E28 [2], 111.1 nM | 3.42 and 3.15 | –
E28 [2], 333.3 nM | 3.17 and 2.59 | –
E28 [2], 1000 nM | 3.49 and 3.39 | –
E28 [9], 4.1 nM | – | 0.424 and 0.34
E28 [9], 12.3 nM | – | 0.335 and 0.367
E28 [9], 37 nM | – | 0.415 and 0.342
E28 [9], 111.1 nM | – | 0.346 and 0.352
E28 [9], 333.3 nM | – | 0.428 and 0.43
E28 [9], 1000 nM | – | 0.328 and 0.336
E31 [5], 4.1 nM | 4.81 | –
E31 [5], 12.3 nM | 3.13 | –
E31 [5], 37 nM | 3.36 | –
E31 [5], 111.1 nM | 3.73 | –
E31 [5], 333.3 nM | 4.39 | –
E31 [5], 1000 nM | 3.79 | –
E31 [5], 3000 nM | 11.9 | –
E31 [12], 4.1 nM | – | 0.165
E31 [12], 12.3 nM | – | 0.184
E31 [12], 37 nM | – | 0.189
E31 [12], 111.1 nM | – | 0.126
E31 [12], 333.3 nM | – | 0.171
E31 [12], 1000 nM | – | 0.174
E31 [12], 3000 nM | – | 0.00446
E34 [6], 4.1 nM | 2.72 and 1.93 | –
E34 [6], 12.3 nM | 2.65 and 1.73 | –
E34 [6], 37 nM | 2.52 and 2.06 | –
E34 [6], 111.1 nM | 2.4 and 1.93 | –
E34 [6], 333.3 nM | 2.3 and 2.24 | –
E34 [6], 1000 nM | 2.35 and 1.99 | –
E34 [13], 4.1 nM | – | 0.598 and 0.534
E34 [13], 12.3 nM | – | 0.575 and 0.607
E34 [13], 37 nM | – | 0.606 and 0.576
E34 [13], 111.1 nM | – | 0.429 and 0.564
E34 [13], 333.3 nM | – | 0.575 and 0.595
E34 [13], 1000 nM | – | 0.549 and 0.594
E57 [1], 4.1 nM | 8.08 and 4.22 | –
E57 [1], 12.3 nM | 4.11 and 7.9 | –
E57 [1], 37 nM | 4.48 and 8.38 | –
E57 [1], 111.1 nM | 4.53 and 7.47 | –
E57 [1], 333.3 nM | 4.17 and 7.46 | –
E57 [1], 1000 nM | 4.05 and 7.38 | –
E57 [1], 3000 nM | 3.9 and 9.85 | –
E57 [8], 4.1 nM | – | 0.0969 and 0.0961
E57 [8], 12.3 nM | – | 0.0867 and 0.0693
E57 [8], 37 nM | – | 0.0872 and 0.0935
E57 [8], 111.1 nM | – | 0.101 and 0.085
E57 [8], 333.3 nM | – | 0.0996 and 0.117
E57 [8], 1000 nM | – | 0.119 and 0.0974
FT3469 [4], 4.1 nM | 2.95 and 2.85 | –
FT3469 [4], 12.3 nM | 2.63 and 2.23 | –
FT3469 [4], 37 nM | 2.78 and 2.25 | –
FT3469 [4], 111.1 nM | 3.02 and 2.28 | –
FT3469 [4], 333.3 nM | 3.08 and 2.17 | –
FT3469 [4], 1000 nM | 2.54 and 2.94 | –
FT3469 [11], 4.1 nM | – | 0.493 and 0.523
FT3469 [11], 12.3 nM | – | 0.562 and 0.558
FT3469 [11], 37 nM | – | 0.606 and 0.566
FT3469 [11], 111.1 nM | – | 0.534 and 0.565
FT3469 [11], 333.3 nM | – | 0.489 and 0.597
FT3469 [11], 1000 nM | – | 0.556 and 0.549
